Columns and labels:
[1] = system: AMPKa1 or AMPKa2; assay: Probe-based (AX9989) kinase profiling in Jurkat lysate: AMPKa1 or AMPKa2; format: binding
Method in brief: (§1)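 Percent inhibition was derived from reduced LC/MS fragment intensities of probe-labeled peptides relative to compound-free controls. Before labeling with 5 μM AX9989, Mn2+-supplemented (20 mM) Jurkat lysate was exposed to compound for 15 min at room temperature.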

[2] = biological target: T1, ACK (Homo sapiens, UniProt Q07912); assay: Probe-based (AX9989) kinase profiling in Jurkat lysate: ACK; format: binding; conditions: for inhibition at 1 µM: screening concentration 1 μM
T1 construct: screened for activity against several kinases in Jurkat cells; endogenous in cells; host or cells: Jurkat cell lysate
Method in brief: as §1

[3] = biological target: T2, ERK5 (Homo sapiens, UniProt Q13164); assay: Probe-based (AX9989 acyl phosphate ATP probe) kinase profiling in Jurkat lysate: ERK5; format: binding; conditions: for IC50: Jurkat lysate; for inhibition at 1 µM: screening concentration 1 μM
T2 construct: screened for activity against several kinases in Jurkat cells; endogenous in cells; host or cells: Jurkat cell lysate
Method in brief: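 ERK5 IC50 values came from percent inhibition at the screening concentration, measured as loss of LC/MS signal of probe-labelled active-site peptides. Compound was added for 15 min at room temperature to Jurkat lysate (5 mg/ml, 20 mM MnCl2) before labelling with AX9989 ATP acyl phosphate probe at 5 μM.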

[4] = biological target: T3, TAO2 (Homo sapiens, UniProt Q9UL54); assay: Probe-based (AX9989) kinase profiling in Jurkat lysate: TAO2; format: binding; conditions: for inhibition at 1 µM: screening concentration 1 μM
T3 construct: screened for activity against several kinases in Jurkat cells; endogenous in cells; host or cells: Jurkat cell lysate
T3 sequence (Q9UL54 1-1235): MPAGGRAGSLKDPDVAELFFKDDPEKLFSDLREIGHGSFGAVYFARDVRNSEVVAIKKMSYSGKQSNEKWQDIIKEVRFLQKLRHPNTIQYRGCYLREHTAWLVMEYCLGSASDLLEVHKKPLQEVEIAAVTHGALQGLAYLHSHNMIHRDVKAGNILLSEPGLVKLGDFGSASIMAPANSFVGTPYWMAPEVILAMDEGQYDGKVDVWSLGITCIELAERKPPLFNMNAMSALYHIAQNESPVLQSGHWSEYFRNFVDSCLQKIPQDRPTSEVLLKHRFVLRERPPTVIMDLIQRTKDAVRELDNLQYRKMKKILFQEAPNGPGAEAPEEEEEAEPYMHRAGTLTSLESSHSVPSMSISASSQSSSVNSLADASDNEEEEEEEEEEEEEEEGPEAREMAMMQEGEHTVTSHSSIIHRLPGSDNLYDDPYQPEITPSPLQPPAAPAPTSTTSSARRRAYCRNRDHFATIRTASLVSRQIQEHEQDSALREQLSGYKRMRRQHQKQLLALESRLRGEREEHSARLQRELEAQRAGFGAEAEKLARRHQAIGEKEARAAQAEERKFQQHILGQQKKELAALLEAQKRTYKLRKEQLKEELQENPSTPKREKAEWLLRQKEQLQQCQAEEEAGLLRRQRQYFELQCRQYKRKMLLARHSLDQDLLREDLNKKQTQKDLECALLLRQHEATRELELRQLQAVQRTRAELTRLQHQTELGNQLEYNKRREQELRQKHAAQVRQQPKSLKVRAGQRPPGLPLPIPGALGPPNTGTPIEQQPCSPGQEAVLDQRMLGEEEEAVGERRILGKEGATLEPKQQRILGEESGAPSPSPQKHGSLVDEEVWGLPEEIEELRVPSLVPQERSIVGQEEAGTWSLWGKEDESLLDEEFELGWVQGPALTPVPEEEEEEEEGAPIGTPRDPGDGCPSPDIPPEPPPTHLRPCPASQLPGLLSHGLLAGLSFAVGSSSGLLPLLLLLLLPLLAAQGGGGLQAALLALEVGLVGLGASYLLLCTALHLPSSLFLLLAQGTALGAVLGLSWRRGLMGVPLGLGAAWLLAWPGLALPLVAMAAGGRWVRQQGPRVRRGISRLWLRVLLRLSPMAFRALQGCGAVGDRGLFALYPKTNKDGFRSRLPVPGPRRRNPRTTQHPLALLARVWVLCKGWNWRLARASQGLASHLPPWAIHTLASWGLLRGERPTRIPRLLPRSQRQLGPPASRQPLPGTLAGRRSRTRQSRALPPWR
Method in brief: as §1

[5] = biological target: T4, JAK1 (Homo sapiens, UniProt P23458); assay: Probe-based (AX9989) kinase profiling in Jurkat lysate: JAK1; format: binding; conditions: for inhibition at 1 µM: screening concentration 1 μM
T4 construct: screened for activity against several kinases in Jurkat cells; endogenous in cells; host or cells: Jurkat cell lysate
Method in brief: as §1

[6] = system: AurB or AurC; assay: Probe-based (AX9989) kinase profiling in Jurkat lysate: AurB or AurC; format: binding
Method in brief: as §1

[7] = system: ABL or ARG; assay: Probe-based (AX9989) kinase profiling in Jurkat lysate: ABL or ARG; format: binding
Method in brief: as §1

[8] = biological target: T5, AurA (Homo sapiens, UniProt O14965); assay: Probe-based (AX9989) kinase profiling in Jurkat lysate: AurA; format: binding; conditions: for inhibition at 1 µM: screening concentration 1 μM
T5 construct: screened for activity against several kinases in Jurkat cells; endogenous in cells; host or cells: Jurkat cell lysate
T5 sequence (O14965 1-403): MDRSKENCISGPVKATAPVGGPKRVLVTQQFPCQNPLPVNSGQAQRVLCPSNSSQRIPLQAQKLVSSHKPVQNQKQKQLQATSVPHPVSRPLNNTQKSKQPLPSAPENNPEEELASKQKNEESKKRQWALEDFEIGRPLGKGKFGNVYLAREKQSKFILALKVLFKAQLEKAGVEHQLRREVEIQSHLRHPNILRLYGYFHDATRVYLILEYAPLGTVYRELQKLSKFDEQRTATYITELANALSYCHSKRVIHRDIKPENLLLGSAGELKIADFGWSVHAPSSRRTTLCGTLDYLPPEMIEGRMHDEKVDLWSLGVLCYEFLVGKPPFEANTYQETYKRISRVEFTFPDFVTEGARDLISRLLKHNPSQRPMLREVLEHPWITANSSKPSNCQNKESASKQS
Method in brief: as §1

[9] = system: human PBMCs; assay: Human PBMC TNF-α response to endotoxin (ELISA); format: cell-based; conditions: 0.1 μg/ml LPS 16 h, read-out: EC50 for the inhibition of the human PBMC TNF-α response to endotoxin, ave. ± S.D.
Protocol: Human PBMCs (Astarte Biologics, Redmond, Wash.) were seeded at 2e6 cells/ml in RPMI 1640 containing 10% (v/v) charcoal-dextran treated, heat inactivated FBS (Omega Scientific, Tarzana, Calif.), 0.05 mM 2-Mercaptoethanol (Sigma-Aldrich, St. Louis, Mo.), and 1×Pen/Strep Amphotericin B (Lonza, Allendale, N.J.). Cells were pre-treated with test compounds (10 μM down by ⅕ in a 4-point serial dilution series) for 1 h at 37° C. in a humidified atmosphere at 5% CO2. Cells were then stimulated with 0.1 μg/ml lipopolysaccharide (LPS) from E. coli 0111:B4 (EMD Millipore, Billerica, Mass.) for 16 h at 37° C. in a humidified atmosphere at 5% CO2. Supernatant was collected and a 25-fold dilution was analyzed for TNF-α concentration using an ELISA kit from Life Technologies (Grand Island, N.Y.) according to the manufacturer's instructions. Absorbance at 450 nm was read using the Synergy 2 multi-detection microplate reader (BioTek Instruments, Winooski, Vt.).

[10] = calculated from percent inhibition and screening concentration, AX9989 probe
[11] = read-out: ACK Inhibition % at indicated screening concentration
[12] = read-out: ERK5 Inhibition % at indicated screening concentration
[13] = read-out: TAO2 Inhibition % at indicated screening concentration
[14] = read-out: JAK1 Inhibition % at indicated screening concentration
[15] = read-out: AurA Inhibition % at indicated screening concentration

T2 sequence (Q13164 whole entry): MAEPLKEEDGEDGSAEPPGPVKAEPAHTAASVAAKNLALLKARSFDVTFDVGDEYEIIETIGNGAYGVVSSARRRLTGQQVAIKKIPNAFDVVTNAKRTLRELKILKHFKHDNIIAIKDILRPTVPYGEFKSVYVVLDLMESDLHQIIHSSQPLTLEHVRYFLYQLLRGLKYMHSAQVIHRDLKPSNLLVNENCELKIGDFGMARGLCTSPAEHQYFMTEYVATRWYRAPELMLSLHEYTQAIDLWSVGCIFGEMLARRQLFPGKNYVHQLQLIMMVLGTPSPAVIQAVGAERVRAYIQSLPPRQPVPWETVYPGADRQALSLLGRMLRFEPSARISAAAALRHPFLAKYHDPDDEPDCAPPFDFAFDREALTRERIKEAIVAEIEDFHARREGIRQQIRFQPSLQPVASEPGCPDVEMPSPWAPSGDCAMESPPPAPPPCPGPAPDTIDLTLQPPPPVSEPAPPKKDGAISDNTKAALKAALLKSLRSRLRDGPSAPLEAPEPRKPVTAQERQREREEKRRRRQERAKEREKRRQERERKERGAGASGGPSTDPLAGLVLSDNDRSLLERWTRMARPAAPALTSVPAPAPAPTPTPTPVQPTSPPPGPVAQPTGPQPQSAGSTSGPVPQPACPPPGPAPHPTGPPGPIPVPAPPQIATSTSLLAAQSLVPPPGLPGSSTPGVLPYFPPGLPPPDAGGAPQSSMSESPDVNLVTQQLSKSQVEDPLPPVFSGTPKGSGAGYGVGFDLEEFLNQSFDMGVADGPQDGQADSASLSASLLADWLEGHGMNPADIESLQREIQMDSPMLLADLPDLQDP
T1 sequence (Q07912 whole entry): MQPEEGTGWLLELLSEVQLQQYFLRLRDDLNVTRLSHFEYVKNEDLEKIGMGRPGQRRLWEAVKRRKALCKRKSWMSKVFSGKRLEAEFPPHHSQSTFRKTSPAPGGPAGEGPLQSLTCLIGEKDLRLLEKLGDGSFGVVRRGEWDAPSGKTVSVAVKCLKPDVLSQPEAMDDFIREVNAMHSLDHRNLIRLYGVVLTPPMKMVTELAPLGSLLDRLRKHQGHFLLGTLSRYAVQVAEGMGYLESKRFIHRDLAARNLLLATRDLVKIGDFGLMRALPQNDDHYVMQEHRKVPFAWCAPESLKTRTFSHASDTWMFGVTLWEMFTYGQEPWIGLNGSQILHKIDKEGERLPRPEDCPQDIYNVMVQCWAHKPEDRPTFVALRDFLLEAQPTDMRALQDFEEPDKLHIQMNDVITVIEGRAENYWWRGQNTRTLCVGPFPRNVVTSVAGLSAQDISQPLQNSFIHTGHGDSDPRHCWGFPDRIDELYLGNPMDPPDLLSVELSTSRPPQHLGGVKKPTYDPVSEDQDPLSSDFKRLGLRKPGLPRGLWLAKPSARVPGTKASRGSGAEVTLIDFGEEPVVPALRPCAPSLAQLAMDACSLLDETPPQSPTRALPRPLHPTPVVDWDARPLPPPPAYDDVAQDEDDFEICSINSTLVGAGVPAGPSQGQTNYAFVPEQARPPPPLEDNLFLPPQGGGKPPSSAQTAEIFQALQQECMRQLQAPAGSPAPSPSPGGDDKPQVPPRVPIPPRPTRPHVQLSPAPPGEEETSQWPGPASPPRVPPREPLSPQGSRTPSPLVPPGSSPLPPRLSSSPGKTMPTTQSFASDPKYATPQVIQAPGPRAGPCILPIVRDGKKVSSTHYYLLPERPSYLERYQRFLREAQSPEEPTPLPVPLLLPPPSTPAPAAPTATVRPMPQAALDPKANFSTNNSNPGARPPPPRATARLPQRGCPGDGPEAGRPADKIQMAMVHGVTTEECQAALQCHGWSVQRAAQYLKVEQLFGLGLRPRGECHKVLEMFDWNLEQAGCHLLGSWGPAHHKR
T4 sequence (P23458 whole entry): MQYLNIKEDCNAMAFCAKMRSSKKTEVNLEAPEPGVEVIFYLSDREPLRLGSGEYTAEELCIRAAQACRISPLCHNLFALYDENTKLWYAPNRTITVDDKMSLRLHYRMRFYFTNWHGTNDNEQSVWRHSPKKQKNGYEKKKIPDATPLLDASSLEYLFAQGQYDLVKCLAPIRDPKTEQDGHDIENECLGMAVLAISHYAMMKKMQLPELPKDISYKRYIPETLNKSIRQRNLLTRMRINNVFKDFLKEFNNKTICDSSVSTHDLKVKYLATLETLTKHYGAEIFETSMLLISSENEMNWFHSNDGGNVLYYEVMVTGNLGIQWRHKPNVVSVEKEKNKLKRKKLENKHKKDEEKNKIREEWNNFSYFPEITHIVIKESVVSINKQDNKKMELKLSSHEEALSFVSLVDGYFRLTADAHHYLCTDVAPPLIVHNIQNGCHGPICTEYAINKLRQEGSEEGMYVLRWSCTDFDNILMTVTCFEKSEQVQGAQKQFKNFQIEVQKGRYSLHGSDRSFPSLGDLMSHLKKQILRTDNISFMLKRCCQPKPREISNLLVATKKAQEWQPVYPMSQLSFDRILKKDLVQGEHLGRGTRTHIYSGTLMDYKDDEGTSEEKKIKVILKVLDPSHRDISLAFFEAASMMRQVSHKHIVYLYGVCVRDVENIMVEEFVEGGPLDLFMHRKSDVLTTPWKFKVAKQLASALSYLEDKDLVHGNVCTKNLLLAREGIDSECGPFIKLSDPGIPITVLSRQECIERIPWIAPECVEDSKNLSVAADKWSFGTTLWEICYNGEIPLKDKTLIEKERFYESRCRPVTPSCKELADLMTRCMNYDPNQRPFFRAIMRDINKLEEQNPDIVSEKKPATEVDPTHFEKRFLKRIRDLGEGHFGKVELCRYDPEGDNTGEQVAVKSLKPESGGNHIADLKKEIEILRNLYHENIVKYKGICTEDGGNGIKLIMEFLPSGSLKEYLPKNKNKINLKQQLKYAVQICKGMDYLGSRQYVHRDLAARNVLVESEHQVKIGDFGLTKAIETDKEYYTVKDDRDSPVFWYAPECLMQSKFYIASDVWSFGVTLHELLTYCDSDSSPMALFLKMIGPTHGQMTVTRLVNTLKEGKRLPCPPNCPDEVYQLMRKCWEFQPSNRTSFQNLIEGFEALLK

Row | IC50 [3, 10] [nM] | AMPKa1 or AMPKa2 Inhibition % at indicated screening concentration ([1]; screening concentration 1 μM) | inhibition at 1 µM [2, 11] [%] | inhibition at 1 µM [3, 12] [%] | inhibition at 1 µM [4, 13] [%] | inhibition at 1 µM [5, 14] [%] | AurB or AurC Inhibition % at indicated screening concentration ([6]; screening concentration 1 μM) | ABL or ARG Inhibition % at indicated screening concentration ([7]; screening concentration 1 μM) | inhibition at 1 µM [8, 15] [%] | Structure (SMILES) | other results
1 |  |  |  |  |  |  |  |  |  | Cc1cc(C(=O)N2CC[C@@H](N(C)C)C2)ccc1Nc1cc2c(cn1)N(C)C(=O)c1ccccc1N2C [Compound 32] | Kinase inhibition % at indicated screening concentration: AMPKa1 or AMPKa2 ([1]; screening concentration 0.1 μM): E (E is ≦35%); inhibition at 0.1 µM ([2]; screening concentration 0.1 μM, read-out: Kinase inhibition % at indicated screening concentration: ACK): ≤ 35%; IC50 ([3]; calculated from percent inhibition of AX9989 labeling and the screening concentration): ≤ 50 nM; inhibition at 0.1 µM ([3]; screening concentration 0.1 μM, read-out: Kinase inhibition % at indicated screening concentration: ERK5): 75 to 90%; inhibition at 0.1 µM ([4]; screening concentration 0.1 μM, read-out: Kinase inhibition % at indicated screening concentration: TAO2): ≤ 35%; inhibition at 0.1 µM ([5]; screening concentration 0.1 μM, read-out: Kinase inhibition % at indicated screening concentration: JAK1): ≤ 35%; Kinase inhibition % at indicated screening concentration: AurB or AurC ([6]; screening concentration 0.1 μM): E (E is ≦35%); Kinase inhibition % at indicated screening concentration: ABL or ARG ([7]; screening concentration 0.1 μM): E (E is ≦35%); inhibition at 0.1 µM ([8]; screening concentration 0.1 μM, read-out: Kinase inhibition % at indicated screening concentration: AurA): ≤ 35%; EC50 [9]: 6360 nM
2 | > 500 |  |  |  |  |  |  |  |  | CCOc1cc(C(=O)N2CCOCC2)ccc1Nc1cc2c(cn1)N(C)C(=O)c1ccccc1S2(=O)=O [Compound T84] | AMPKa1 or AMPKa2 Inhibition % at indicated screening concentration ([1]; screening concentration 10 μM): E (E is ≦35%); inhibition at 10 µM ([2]; screening concentration 10 μM, read-out: ACK Inhibition % at indicated screening concentration): ≤ 35%; inhibition at 10 µM ([3]; screening concentration 10 μM, read-out: ERK5 Inhibition % at indicated screening concentration): 75 to 90%; inhibition at 10 µM ([4]; screening concentration 10 μM, read-out: TAO2 Inhibition % at indicated screening concentration): ≤ 35%; inhibition at 10 µM ([5]; screening concentration 10 μM, read-out: JAK1 Inhibition % at indicated screening concentration): ≤ 35%; AurB or AurC Inhibition % at indicated screening concentration ([6]; screening concentration 10 μM): E (E is ≦35%); ABL or ARG Inhibition % at indicated screening concentration ([7]; screening concentration 10 μM): E (E is ≦35%); inhibition at 10 µM ([8]; screening concentration 10 μM, read-out: AurA Inhibition % at indicated screening concentration): ≤ 35%
3 | > 500 | E (E is ≦35%) | ≤ 35 | 35 to 50 | ≤ 35 | ≤ 35 | E (E is ≦35%) | E (E is ≦35%) | ≤ 35 | CN1C(=O)c2ccccc2N(S(C)(=O)=O)c2cc(N[C@H]3CC[C@H](O)CC3)ncc21 [Compound T86, 3-(((1r,4r)-4-hydroxycyclohexyl)amino)-11-methyl-5-(methylsulfonyl)-5H-benzo[e]pyrido[3,4-b][1,4]diazepin-10(11H)-one] | 
4 | > 500 | E (E is ≦35%) | ≤ 35 | 50 to 75 | ≤ 35 | ≤ 35 | E (E is ≦35%) | E (E is ≦35%) | ≤ 35 | CCOc1cc(C(=O)N2CCN(C3CCN(C)CC3)CC2)ccc1Nc1cc2c(cn1)N(C)C(=O)c1ccccc1N2S(C)(=O)=O [Compound T87] | 

Source: patent US20170008888A1 (KYORIN PHARMACEUTICAL CO., LTD., priority 2014, published 2017)
